# In patent US20130040935A1, “CYCLIC KETO-ENOLS FOR THERAPY” (BAYER INTELLECTUAL PROPERTY GMBH, priority 2010, published 2013):
# Read-outs that look alike come from different tables or passages of the source.
# What was measured:
# MDA-MB-468 = test: Cell proliferation assay (CellTiter-Glo, 96 h), MDA-MB-468; format: cell-based; details: Homo sapiens
# Description: (§1) In accordance with the invention, the substances were tested in cell-based assays for the ability of the substances of inhibiting tumour cell proliferation after a 96-hour incubation with the substance. Cell viability was tested using the CellTiter-Glo® luminescent cell viability assay (Promega). The cells were sown at a density of 2000-5000 cells/well (depending on the cell line) in 100 μl growth medium on 96-well microtitre plates. For each cell line examined, cells were sown on a separate plate to determine the luminescence at t=0 hours and t=96 hours. After overnight incubation at 37° C., the luminescence values for the t=0 samples were determined. The dose plates for the t=96 hours points in time were treated with substances diluted with growth medium. The cells were then incubated at 37° C. for 96 hours, and the luminescence values for the t=96 hours sample were then determined. For data analysis, the t=0 values were subtracted from the t=96 hour values for treated and untreated samples. The differences in luminescence in percent between substance-treated samples and control values were used to determine the growth inhibition in percent.
# (§2) The substances were tested in the following cell lines which represent the stated indications in an exemplary manner: […]
# [1] = target: T1, human ACC1 (acetyl-coenzyme A carboxylase alpha transcript variant 1) (Homo sapiens, UniProt Q13085); test: Human ACC1 enzyme assay, Assay B1 (ADP-Glo); format: biochemical
# T1 construct: FLAG (C); made in house; host or cells: baculovirus-infected insect cells (Hi5)
# MDA-MB-436 = test: Cell proliferation assay (CellTiter-Glo, 96 h), MDA-MB-436; format: cell-based; details: Homo sapiens
# Description: as §1, §2
# [2] = target: human ACC2 (acetyl-coenzyme A carboxylase 2) (Homo sapiens, UniProt O00763); test: Human ACC2 enzyme assay, Assay B2 (ADP-Glo);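 also: human ACC2 activity read as ADP product, detected by luciferase glow luminescence after residual ATP removal, enzyme near 2 ng/µl in linear range, detection steps at 22 °C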
# [3] = tested on: malonyl-CoA in a tumour (human MCF-7 breast cancer cells); test: Mode-of-action experiment: intratumour malonyl-CoA in MCF-7 tumours after oral administration; format: in vivo, female nude mice (NMRI-nude (nu/nu)); details: Mus musculus, after 7 h
# Description: Mode-of-Action Experiment
# Prior to the determination of the activity in the MCF-7 model, some of the test substances were examined in a “mode of action” experiment. The principle of this experiment is that short-term application of a test substance capable of inhibiting ACC1 and/or ACC2 in a living organism after oral administration reduces malonyl-CoA in a tumour. To this end, in the experiment 2 million human MCF-7 breast cancer cells were injected subcutaneously into female nude mice (NMRI-nude (nu/nu) mice, Taconic M&B A/S, 1 day beforehand administration of a pellet for the release of oestrogen over a period of at least 60 days). Once the tumour extended to an area of about 60-70 mm^2, the test substance was administered orally over a period of 1-3 days, and at defined points in time the intratumour content of malonyl-CoA was then determined and compared to the vehicle control. The method is described in Anal Chem 2008 Aug. 1; 80(15):5736-42. Epub 2008 Jul. 9.).
# MCF7 = test: Cell proliferation assay (CellTiter-Glo, 96 h), MCF7; format: cell-based; details: Homo sapiens
# In short: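 Cells seeded 2000-5000/well, treated next day and incubated 96 h at 37° C; viability by CellTiter-Glo luminescence. t=0 luminescence subtracted from 96 h values for treated and untreated wells; percent growth inhibition derived relative to controls.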
# HCC-1937 = test: Cell proliferation assay (CellTiter-Glo, 96 h), HCC-1937; format: cell-based; details: Homo sapiens, HCC1937
# Description: as §1, §2
# Miapaca = test: Cell proliferation assay (CellTiter-Glo, 96 h), Miapaca; format: cell-based; details: Homo sapiens, MIA PaCa-2
# Description: as §1, §2
# A431 = test: Cell proliferation assay (CellTiter-Glo, 96 h), A431; format: cell-based; details: Homo sapiens, A-431; 96-hour incubation
# Description: as §1, §2
# ECC1 = test: Cell proliferation assay (CellTiter-Glo, 96 h), ECC1; format: cell-based; details: Homo sapiens, ECC-1; 96-hour incubation
# Description: as §1, §2
# NCI-H2135 = test: Cell proliferation assay (CellTiter-Glo, 96 h), NCI-H2135; format: cell-based; details: 96-hour incubation; read-out: NCLH 2135 IC50
# Description: as §1, §2
# 786 O = test: Cell proliferation assay (CellTiter-Glo, 96 h), 786 O; format: cell-based; details: Homo sapiens, 786-0; 96-hour incubation
# Description: as §1, §2
# KM12 = test: Cell proliferation assay (CellTiter-Glo, 96 h), KM12; format: cell-based; details: Homo sapiens, 96-hour incubation
# Description: as §1, §2
# Du145 = test: Cell proliferation assay (CellTiter-Glo, 96 h), Du145; format: cell-based; details: Homo sapiens, DU-145; 96-hour incubation
# Description: as §1, §2
# DLD1 = test: Cell proliferation assay (CellTiter-Glo, 96 h), DLD1; format: cell-based; details: Homo sapiens, DLD-1; 96-hour incubation
# Description: as §1, §2
# MDA-MB-435 = test: Cell proliferation assay (CellTiter-Glo, 96 h), MDA-MB-435; format: cell-based; details: Homo sapiens, 96-hour incubation
# Description: as §1, §2
# PLC/PRF5 = test: Cell proliferation assay (CellTiter-Glo, 96 h), PLC/PRF5; format: cell-based; details: Homo sapiens, PLC-PRF-5; 96-hour incubation
# Description: as §1, §2
# PC3 = test: Cell proliferation assay (CellTiter-Glo, 96 h), PC3; format: cell-based; details: Homo sapiens, PC-3; 96-hour incubation
# Description: as §1, §2
# [4] = target: acetyl-CoA carboxylase 2 (ACC2) (Homo sapiens, UniProt O00763); test: Human ACC2 enzyme assay, Assay A2 (HTRF ADP immunoassay);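 also: ADP generated by ACC2 quantified via competitive time-resolved FRET between europium cryptate anti-ADP antibody and d2-tagged ADP, enzyme kept in linear range near 0.6 ng/µl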
# Description: The inhibitory activity of the substances of this invention with regard to acetyl-CoA carboxylase 2 (ACC2) was measured using the ACC2 assay described in the paragraphs below. The basic principle of the assay is the measurement of adenosine diphosphate (ADP), which is formed as a by-product, by means of an HTRF®-based competitive immunoassay (HTRF=Homogeneous Time Resolved Fluorescence).
# The amount of complex of d2-labelled ADP and europium cryptate-labelled anti-ADP antibody was then determined by measuring the resonance energy transfer of europium cryptate to d2.
# [5] = In-vitro dissolution of the pharmaceutical formulation (USP apparatus 2, paddle method); format: physicochemical; details: pH 1 and pH 6.8 (reason for adding SDS)
# Description: c) In-Vitro Dissolution of the Pharmaceutical Formulation […] The release test was in each case carried out in 900 ml of various media at 37° C. and with a stirrer speed of 75 rotations per minute (FIG. 2). Each determination was carried out in three replications. The content was determined by HPLC.
# recombinant human ACC1 = recombinant human ACC1 (Homo sapiens, UniProt Q13085); test: Human ACC1 enzyme assay, Assay A1 (HTRF ADP immunoassay);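 also: ADP generated by the enzyme quantified via competitive time-resolved FRET, read as europium cryptate to d2 energy transfer after 1 h at 22 °C with labelled ADP tracer and anti-ADP antibody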
# Description: The inhibitory activity of the substances of this invention with regard to acetyl-CoA carboxylase 1 (ACC1) was measured using the ACC1 assay described in the paragraphs below. The basic principle of the assay is the measurement of adenosine diphosphate (ADP), which is formed as a by-product, by means of an HTRF®-based competitive immunoassay (HTRF=Homogeneous Time Resolved Fluorescence).
# Typical concentrations were in the range of 2.5 ng/μl.
# The amount of complex between d2-labelled ADP and europium cryptate-labelled anti-ADP antibody was then determined by measuring the resonance energy transfer from the europium cryptate to d2.
# HEC1A = test: Cell proliferation assay (CellTiter-Glo, 96 h), HEC1A; format: cell-based; details: Homo sapiens, HEC-1-A; 96-hour incubation
# Description: as §1, §2
# [6] = target: ACCase enzyme extracted from oat seedlings (Avena sativa, UniProt A0ACD5YD93); test: Non-human ACCase assay (malachite green phosphate detection); format: biochemical; details: comparative compounds, Table V.2; read-out: ACC-non human IC50
# Description: The assay was carried out at room temperature in a transparent 384-well microtitre plate. It determined the inorganic phosphate released from the ATP in the ACCase reaction.
# The test mixture contained 50 mM Tris-HCl pH 8.3, 50 mM KCl, 2.5 mM MgCl2, 0.5 mM ATP, 0.8 mM dithiothreitol (DTT), 30 mM NaHCO3, 0.1 mM acetyl-CoA, 0.04% bovine serum albumin and 0.4 μg partially purified ACCase enzyme in a final volume of 40 μl. After 45 minutes of incubation, the reaction was stopped with 150 μl of malachite green solution, and the absorption at […] was read after 30 minutes.
# The malachite green (MG) solution was prepared by mixing 3 parts of 0.6 mM MG-HCl solution in distilled water with 1 part of 8.5 mM ammonium molybdate in 4 M HCl. The solution was allowed to stand for 30 minutes. After filtration through a 0.45 μm polytetrafluoroethylene (PTFE) filter, 0.1 part of Triton X-100 (1.5%) in distilled water was added.
# ACCase enzyme was extracted from oat seedlings 9 days after sowing and partially purified by precipitation with 0-40% ammonium sulphate followed by ion exchange chromatography on Q-Sepharose.
# [7] = MCF7, Table 7, 96-hour incubation
# [8] = Assay B1, read-out: ACC 1 (=B1) IC50
"IC50 [1, 8]",SMILES,"IC50 (MDA-MB-468; MDA-MB-468, 96-hour incubation)",IC50 [1],"IC50 (MDA-MB-436; MDA-MB-436, 96-hour incubation)",IC50 [2],"inhibition in vivo at 10 mg/kg ([3]; MCF7, po, 10 mg/kg, vs Vehicle)",IC50 (MCF7; [7]),IC50 (HCC-1937; 96-hour incubation),IC50 (Miapaca; 96-hour incubation),also measured
–,"Cc1ccc(-c2ccc(Cl)cc2)c(C)c1C1=C(O)C2(CCOCC2)NC1=O [1-1, 3-(4′-chloro-2,4-dimethylbiphenyl-3-yl)-4-hydroxy-8-oxa-1-azaspiro[4.5]dec-3-en-2-one]",274 nM,245 nM,140 nM,> 20000 nM,39%,800 nM,1080 nM,827 nM,–
–,"Cc1ccc(-c2ccc(Cl)cc2)cc1C1=C(O)C2(CCOCC2)NC1=O [1-6, 3-(4′-chloro-4-methylbiphenyl-3-yl)-4-hydroxy-8-oxa-1-azaspiro[4.5]dec-3-en-2-one]",555 nM,133 nM,313 nM,9340 nM,68%,209 nM,873 nM,1250 nM,–
234 nM,"Cc1ccc(-c2ccc(Cl)cc2)cc1C1=C(O)C2(CCC(OCC(F)(F)F)CC2)NC1=O (centres unmarked) [1-33, 3-(4′-chloro-4-methylbiphenyl-3-yl)-4-hydroxy-8-(2,2,2-trifluoroethoxy)-1-azaspiro[4.5]dec-3-en-2-one]",74 nM,–,70 nM,2010 nM,88%,27 nM,108 nM,193 nM,–
202 nM,"COCC1CCC2(CC1)NC(=O)C(c1cc(-c3ccc(Cl)cc3)ccc1C)=C2O (centres unmarked) [1-56, 3-(4′-chloro-4-methylbiphenyl-3-yl)-4-hydroxy-8-(methoxymethyl)-1-azaspiro[4.5]dec-3-en-2-one]",138 nM,–,84 nM,672 nM,84%,30 nM,171 nM,316 nM,IC50 (A431): 214 nM
–,"Cc1ccc(-c2ccc(Cl)cc2)cc1C1=C(O)C2(CCCCC2)NC1=O [1-77, 3-(4′-chloro-4-methylbiphenyl-3-yl)-4-hydroxy-1-azaspiro[4.5]dec-3-en-2-one]",–,278 nM,–,2590 nM,96%,–,–,–,IC50 (ECC1): 257 nM; IC50 (NCI-H2135): 33 nM; IC50 (786 O): 404 nM; IC50 (KM12): 80 nM; IC50 (Du145): 51 nM; IC50 (DLD1): 875 nM; IC50 (MDA-MB-435): 140 nM; IC50 (PLC/PRF5): 3890 nM; IC50 (PC3): 31 nM
157 nM,"Cc1ccc(-c2ccc(F)c(F)c2)cc1C1=C(O)[C@]2(CC[C@H](C(F)(F)F)CC2)NC1=O [1-128, (5s,8s)-3-(3′,4′-Difluoro-4-methylbiphenyl-3-yl)-4-hydroxy-8-(trifluoromethyl)-1-azaspiro[4.5]dec-3-en-2-one]",–,–,–,4410 nM,–,33 nM,–,–,IC50 (ECC1): 137 nM; IC50 [4]: 2740 nM; IC50 (KM12): 74 nM; IC50 (Du145): 29 nM; IC50 (recombinant human ACC1): 195 nM; IC50 (HEC1A): 328 nM; IC50 (PC3): 20 nM
–,"Cc1cc(C)c(-c2ccc(Cl)cc2)cc1C1=C(O)[C@]2(CC[C@@]3(CCCO3)CC2)OC1=O [2-30, (5r,8s)-3-(4′-chloro-4,6-dimethylbiphenyl-3-yl)-4-hydroxy-1,9-dioxadispiro[4.2.4.2]tetradec-3-en-2-one]",–,696 nM,–,243 nM,–,–,–,–,"IC50 (MDA-MB-468; MDA-MB-468 cells): 153 nM; IC50 (MDA-MB-436; MDA-MB-436 cells): 115 nM; inhibition in vivo at 10 mg/kg ([3]; MCF7, 10 mg/kg oral, MCF-7 tumour in nude mice, vs vehicle): 36%; IC50 (MCF7; MCF7 cells): 64 nM; IC50 (HCC-1937; HCC-1937 cells): 1500 nM; IC50 (Miapaca; MiaPaca cells): 255 nM"
–,CCc1cc(-c2ccccc2)cc(Cl)c1C1C(=O)N2CCOCCN2C1=O [V-1],–,–,–,–,–,–,–,–,IC50 [6]: 0.5 nM
–,COC1CCC2(CC1)NC(=O)C(c1c(C)cc(-c3ccc(Cl)cc3)cc1C)=C2O (centres unmarked) [V-2],–,–,–,–,–,–,–,–,IC50 [6]: 40 nM
–,COC1CCC2(CC1)NC(=O)C(c1c(C)cc(OC(F)(F)F)cc1Cl)=C2O (centres unmarked) [V-3],–,–,–,–,–,–,–,–,IC50 [6]: 2 nM

SMILES,"IC50 [1, 8]","IC50 (MDA-MB-468; MDA-MB-468, 96-hour incubation)",IC50 [1],"IC50 (MDA-MB-436; MDA-MB-436, 96-hour incubation)",IC50 [2],"inhibition in vivo at 10 mg/kg ([3]; MCF7, po, 10 mg/kg, vs Vehicle)",IC50 (MCF7; [7]),IC50 (HCC-1937; 96-hour incubation),IC50 (Miapaca; 96-hour incubation),also measured
"CO[C@H]1CC[C@]2(CC1)NC(=O)C(c1cc(-c3ccc(Cl)c(F)c3)ccc1C)=C2O [1-118, (5s,8s)-3-(4′-Chloro-3′-fluoro-4-methylbiphenyl-3-yl)-4-hydroxy-8-methoxy-1-azaspiro[4.5]dec-3-en-2-one]",102 nM,–,–,–,1380 nM,–,37 nM,–,–,IC50 (ECC1): 221 nM; IC50 [4]: 690 nM; solubility in dissolution media [5]: insufficient solubility; IC50 (KM12): 275 nM; IC50 (Du145): 39 nM; IC50 (recombinant human ACC1): 129 nM; IC50 (HEC1A): 1760 nM; IC50 (PC3): 25 nM
